Measurements: ChEMBL document CHEMBL3286170, “Design, synthesis and antimycobacterial activity evaluation of natural oridonin derivatives” (2014)
≈ marks a conversion by molar mass, not a printed value.

Legend:
Type in all cases: functional
[1] = system: Mycolicibacterium phlei; assay: Antimycobacterial activity against Mycobacterium phlei ATCC 355 after 1 day by alamar blue assay; conditions: ATCC 355, 24 h
[2] = system: Mycolicibacterium smegmatis; assay: Antimycobacterial activity against Mycobacterium smegmatis ATCC 19420 after 1 day; conditions: ATCC 19420, 24 h
[3] = system: Mycobacterium marinum; assay: Antimycobacterial activity against Mycobacterium marinum ATCC 927 after 7 days; conditions: ATCC 927, 168 h

| Compound | MIC [1] [µg/mL] | MIC [2] [µg/mL] | MIC [3] [µg/mL] |
| --- | --- | --- | --- |
| C=C1C(=O)[C@@]23C(=O)O[C@H]4CCC(C)(C)[C@H]5[C@H](O)OC[C@@]45[C@@H]2CC[C@@H]1[C@H]3O | 32 (≈ 88.3 µM) |  |  |
| C=C1C(=O)[C@@]23C(=O)O[C@H]4CCC(C)(C)[C@H]5C(=O)OC[C@@]45[C@@H]2CC[C@@H]1[C@H]3O | 16 (≈ 44.4 µM) |  |  |
| C=C1C(=O)[C@@]23C(=O)O[C@H]4CCC(C)(C)[C@H]5[C@H](O)OC[C@@]45[C@@H]2CC[C@@H]1[C@H]3OC(C)=O | 32 (≈ 79.1 µM) |  |  |
| C=C1C(=O)[C@@]23C(=O)O[C@H]4CCC(C)(C)[C@H]5[C@H](O)OC[C@@]45[C@@H]2CC[C@@H]1[C@H]3OC(=O)c1ccc(C(F)(F)F)cc1 | 8 (≈ 15 µM) | 16 (≈ 29.9 µM) | 16 (≈ 29.9 µM) |
| C=C1C(=O)[C@]23[C@H](OC(=O)C45CC6CC(CC(C6)C4)C5)[C@H]1CC[C@H]2[C@@]12CO[C@]3(O)[C@@H](O)[C@@H]1C(C)(C)CC[C@@H]2O | 16 (≈ 30.4 µM) |  |  |
| C=C1C(=O)[C@@]23C(=O)O[C@H]4CCC(C)(C)[C@H]5[C@H](O)OC[C@@]45[C@@H]2CC[C@@H]1[C@H]3OC(=O)/C=C/c1ccccc1 | 2 (≈ 4.06 µM) | 16 (≈ 32.5 µM) | 32 (≈ 65 µM) |
| C=C1C(=O)[C@@]23C(=O)O[C@H]4CCC(C)(C)[C@H]5C(=O)OC[C@@]45[C@@H]2CC[C@@H]1[C@H]3OC(C)=O | 2 (≈ 4.97 µM) | 64 (≈ 159 µM) | 64 (≈ 159 µM) |
| C=C1C(=O)[C@@]23C(=O)O[C@H]4CCC(C)(C)[C@H]5C(=O)OC[C@@]45[C@@H]2CC[C@@H]1[C@H]3OC(=O)c1ccc(F)cc1 | 2 (≈ 4.15 µM) | 16 (≈ 33.2 µM) | 32 (≈ 66.3 µM) |
| C=C1C(=O)[C@@]23C(=O)O[C@H]4CCC(C)(C)[C@H]5C(=O)OC[C@@]45[C@@H]2CC[C@@H]1[C@H]3OC(=O)/C=C/c1ccccc1 | 0.5 (≈ 1.02 µM) | 4 (≈ 8.15 µM) | 4 (≈ 8.15 µM) |
| C=C1C(=O)[C@@]23C(=O)O[C@H]4CCC(C)(C)[C@H]5C(=O)OC[C@@]45[C@@H]2CC[C@@H]1[C@H]3OC(=O)/C=C/c1ccc(F)cc1 | 0.5 (≈ 0.983 µM) | 4 (≈ 7.87 µM) | 4 (≈ 7.87 µM) |
| C=C1C(=O)[C@]23[C@H](O)[C@H]1CC[C@H]2[C@@]12CO[C@]3(O)[C@@H](O)[C@@H]1C(C)(C)CCC2=O | 8 (≈ 22.1 µM) |  |  |
| C=C1C(=O)[C@]23[C@H](OC(=O)C4CCCCC4)[C@H]1CC[C@H]2[C@@]12CO[C@]3(O)[C@@H](O)[C@@H]1C(C)(C)CCC2=O | 16 (≈ 33.9 µM) |  |  |
| C=C1C(=O)[C@]23[C@H](OC(=O)c4ccc(C(F)(F)F)cc4)[C@H]1CC[C@H]2[C@@]12CO[C@]3(O)[C@@H](O)[C@@H]1C(C)(C)CCC2=O | 16 (≈ 29.9 µM) |  |  |
| CN[C@@H]1[C@H](O[C@H]2[C@H](O[C@H]3[C@H](O)[C@@H](O)[C@H](N=C(N)N)[C@@H](O)[C@@H]3N=C(N)N)O[C@@H](C)[C@]2(O)C=O)O[C@@H](CO)[C@H](O)[C@H]1O [STREPTOMYCIN] | 0.5 (≈ 0.86 µM) | 0.125 (≈ 0.215 µM) | 0.5 (≈ 0.86 µM) |

Other lines, results leading:

| MIC [1] [µg/mL] | MIC [2] [µg/mL] | MIC [3] [µg/mL] | Compound |
| --- | --- | --- | --- |
| 8 (≈ 16.9 µM) |  |  | C=C1C(=O)[C@]23[C@H](OC(=O)C4CCCCC4)[C@H]1CC[C@H]2[C@@]12CO[C@]3(O)[C@@H](O)[C@@H]1C(C)(C)CC[C@@H]2O |
| 2 (≈ 4.08 µM) | 16 (≈ 32.6 µM) | 16 (≈ 32.6 µM) | C=C1C(=O)[C@]23[C@H](OC(=O)CCCCCCC)[C@H]1CC[C@H]2[C@@]12CO[C@]3(O)[C@@H](O)[C@@H]1C(C)(C)CC[C@@H]2O |
| 32 (≈ 65.8 µM) |  |  | C=C1C(=O)[C@]23[C@H](OC(=O)c4ccc(F)cc4)[C@H]1CC[C@H]2[C@@]12CO[C@]3(O)[C@@H](O)[C@@H]1C(C)(C)CC[C@@H]2O |
| 16 (≈ 29.8 µM) |  |  | C=C1C(=O)[C@]23[C@H](OC(=O)c4ccc(C(F)(F)F)cc4)[C@H]1CC[C@H]2[C@@]12CO[C@]3(O)[C@@H](O)[C@@H]1C(C)(C)CC[C@@H]2O |
| 16 (≈ 34.1 µM) |  |  | C=C1C(=O)[C@]23[C@H](OC(=O)c4cccnc4)[C@H]1CC[C@H]2[C@@]12CO[C@]3(O)[C@@H](O)[C@@H]1C(C)(C)CC[C@@H]2O |
| 32 (≈ 61.3 µM) |  |  | C=C1C(=O)[C@]23[C@H](OC(=O)Cc4c[nH]c5ccccc45)[C@H]1CC[C@H]2[C@@]12CO[C@]3(O)[C@@H](O)[C@@H]1C(C)(C)CC[C@@H]2O |
| 4 (≈ 8.5 µM) | 32 (≈ 68 µM) | 32 (≈ 68 µM) | C=C1C(=O)[C@]23[C@H](OC(=O)c4cnccn4)[C@H]1CC[C@H]2[C@@]12CO[C@]3(O)[C@@H](O)[C@@H]1C(C)(C)CC[C@@H]2O |
| 1 (≈ 2.02 µM) | 8 (≈ 16.2 µM) | 8 (≈ 16.2 µM) | C=C1C(=O)[C@]23[C@H](OC(=O)/C=C/c4ccccc4)[C@H]1CC[C@H]2[C@@]12CO[C@]3(O)[C@@H](O)[C@@H]1C(C)(C)CC[C@@H]2O |
| 2 (≈ 3.9 µM) | 4 (≈ 7.8 µM) | 8 (≈ 15.6 µM) | C=C1C(=O)[C@]23[C@H](OC(=O)/C=C/c4ccc(F)cc4)[C@H]1CC[C@H]2[C@@]12CO[C@]3(O)[C@@H](O)[C@@H]1C(C)(C)CC[C@@H]2O |
| 0.5 (≈ 0.953 µM) | 4 (≈ 7.62 µM) | 4 (≈ 7.62 µM) | C=C1C(=O)[C@]23[C@H](OC(=O)/C=C/c4ccc(OC)cc4)[C@H]1CC[C@H]2[C@@]12CO[C@]3(O)[C@@H](O)[C@@H]1C(C)(C)CC[C@@H]2O |
| 1 (≈ 1.8 µM) | 8 (≈ 14.4 µM) | 16 (≈ 28.8 µM) | C=C1C(=O)[C@]23[C@H](OC(=O)/C=C/c4ccc(OC)c(OC)c4)[C@H]1CC[C@H]2[C@@]12CO[C@]3(O)[C@@H](O)[C@@H]1C(C)(C)CC[C@@H]2O |
| 0.5 (≈ 0.979 µM) | 16 (≈ 31.3 µM) | 16 (≈ 31.3 µM) | C=C1C(=O)[C@@]23C(=O)O[C@H]4CCC(C)(C)[C@H]5[C@H](O)OC[C@@]45[C@@H]2CC[C@@H]1[C@H]3OC(=O)/C=C/c1ccc(F)cc1 |
| 2 (≈ 3.83 µM) | 16 (≈ 30.6 µM) | 32 (≈ 61.2 µM) | C=C1C(=O)[C@@]23C(=O)O[C@H]4CCC(C)(C)[C@H]5[C@H](O)OC[C@@]45[C@@H]2CC[C@@H]1[C@H]3OC(=O)/C=C/c1ccc(OC)cc1 |
| 8 (≈ 15.7 µM) | 16 (≈ 31.3 µM) | 64 (≈ 125 µM) | C=C1C(=O)[C@]23[C@H](OC(=O)/C=C/c4ccc(F)cc4)[C@H]1CC[C@H]2[C@@]12CO[C@]3(O)[C@@H](O)[C@@H]1C(C)(C)CCC2=O |
| 8 (≈ 15.5 µM) |  |  | C=C1C(=O)[C@]23[C@H](OC(=O)C4CCCCC4)[C@H]1CC[C@H]2[C@@]12CO[C@]3(O)[C@@H](O)[C@@H]1C(C)(C)CC[C@@H]2OC(C)=O |
| 16 (≈ 27.7 µM) |  |  | C=C1C(=O)[C@]23[C@H](OC(=O)c4ccc(C(F)(F)F)cc4)[C@H]1CC[C@H]2[C@@]12CO[C@]3(O)[C@@H](O)[C@@H]1C(C)(C)CC[C@@H]2OC(C)=O |
| 8 (≈ 14.4 µM) | 16 (≈ 28.8 µM) | 64 (≈ 115 µM) | C=C1C(=O)[C@]23[C@H](OC(=O)/C=C/c4ccc(F)cc4)[C@H]1CC[C@H]2[C@@]12CO[C@]3(O)[C@@H](O)[C@@H]1C(C)(C)CC[C@@H]2OC(C)=O |
| 1 (≈ 2.46 µM) | 16 (≈ 39.4 µM) | 32 (≈ 78.7 µM) | C=C1C(=O)[C@]23[C@H](O)[C@H]1CC[C@H]2[C@@]12CO[C@@]3(O)[C@@H](O)[C@@H]1C(C)(C)CC[C@@H]2OC(C)=O [LASIOKAURIN] |
| 16 (≈ 43.9 µM) | > 64 | > 64 | C=C1C(=O)[C@]23[C@H](O)[C@H]1CC[C@H]2[C@@]12CO[C@]3(O)[C@@H](O)[C@@H]1C(C)(C)CC[C@@H]2O [ORIDONIN] |
